# B1: ABBV-8E12: humanized anti-tau monoclonal antibody (antibody, chains of the INN, looked up, V domains shown)
# VH: EVKVVESGGGLVQPGGSMKLSCVVSGFTFSNYWVNWVRQAPGKGLEWVAQIRLKSDNYATHYEESVKGRFTISRDDSKSSVYLQMNNLRAEDSGIYYCTNWEDYWGQGTTVTVSS
# VL: DIVLTQSPDSLAVSLGERATISCRASQSVSTSRYSYIHWYQQKPGQPPKLLIKYASNLESGVPSRFSGSGSGTDFTLNIHPLEPEDFATYYCHHSWEIPLTFGQGTKLEIK
# B2: Gosuranemab: a humanized monoclonal antibody that targets N-terminal tau (antibody, chains of the INN, looked up, V domains shown)
# VH: EVHLVESGGALVKPGGSLRLSCAASGFSFSKYGMSWVRQAPGKGLEWVATISSSGSRTYYPDSVKGRFTISRDNAKNTLYLQMNSLRAEDTAMYYCSISWDGAMDYWGQGTTVTVSS
# VL: DVVMTQSPLSLPVTLGQPASISCKSSQSIVHSNGNTYLEWYLQKPGQSPQLLVYKVSNRFSGVPDRFSGSGSGTDFTLKISRVEAEDVGTYYCFQGSLVPWAFGGGTKVEIK
# Legend:
# PSP = conditions: literature clinical trials in PSP patients; cited from earlier work
# [1] = 1-hydroxy (M3) metabolite formed in vivo; cited from earlier work
# [2] = test system: subjects with probable or possible PSP; assay: Fasudil treatment of subjects with probable or possible PSP, assessed at baseline, six months and one year; format: in vivo, human; conditions: fasudil 180 mg/day (60 mg tid)
Molecule,clinical effect / benefit in PSP (PSP),also measured
C=CC1O[C@H]2C[C@H]3OC[C@@]3(OC(C)=O)[C@H]3[C@H](OC(=O)c4ccccc4)[C@]4(O)C[C@H](OC(=O)[C@H](O)[C@H](CC(C)C)NC(=O)OC(C)(C)C)C(C)=C([C@H](OC(C)=O)[C@H](O1)[C@]23C)C4(C)C (some centres unmarked) [TPI 287],failed to show any effect,–
CC[C@H](C)[C@H](NC(=O)[C@H](CO)NC(=O)[C@@H](NC(=O)[C@@H]1CCCN1C(=O)[C@H](C)NC(=O)[C@@H](N)CC(N)=O)C(C)C)C(=O)N1CCC[C@H]1C(=O)N[C@@H](CCC(N)=O)C(=O)O [Davunetide],not shown not to be effective,–
"O=S(=O)(c1cccc2c(O)nccc12)N1CCCNCC1 [M3, hydroxyfasudil]",–,half-life [1]: about 8 hours
O=C(Oc1ccccc1C(=O)O)c1ccccc1O [Salsalate],failed,–
Nc1nc2ccc(OC(F)(F)F)cc2s1 [riluzole],failed to demonstrate effects,–
O=c1sn(-c2cccc3ccccc23)c(=O)n1Cc1ccccc1 [tideglusib],failed to show benefit,–
COC1=C(OC)C(=O)C(C/C=C(\C)CC/C=C(\C)CC/C=C(\C)CC/C=C(\C)CC/C=C(\C)CC/C=C(\C)CC/C=C(\C)CC/C=C(\C)CC/C=C(\C)CCC=C(C)C)=C(C)C1=O [coenzyme Q10],failed to provide benefit,–
"Cl.O=S(=O)(c1cccc2cnccc12)N1CCCNCC1 [fasudil, Hexahydro-1-(5-isoquinolinesulfonyl)-1H-1,4-diazepine monohydrochloride hemihydrate]",–,Oculomotor parameters [2]: improve; sleep parameters [2]: improve
B1,failed to demonstrate an effect,–
B2,no effect,–

# Reference: patent US11311553B1, “Methods of treating 4-repeat tauopathies” (priority 2020, dated 2022)
